Measured values taken from publication PMC3883290, “Functional characterization in Xenopus oocytes of Na^+ transport systems from durum wheat reveals diversity among two HKT1;4 transporters” (Journal of Experimental Botany, 2013).

Target: T1, TdHKT1;4-2 (Triticum turgidum, UniProt U5YMY4)
T1 construct: full-length coding region (ORF 1686 bp, 562 residues as printed) in pGEMXho, cRNA expressed in Xenopus laevis oocytes
T1 sequence (U5YMY4 1-561): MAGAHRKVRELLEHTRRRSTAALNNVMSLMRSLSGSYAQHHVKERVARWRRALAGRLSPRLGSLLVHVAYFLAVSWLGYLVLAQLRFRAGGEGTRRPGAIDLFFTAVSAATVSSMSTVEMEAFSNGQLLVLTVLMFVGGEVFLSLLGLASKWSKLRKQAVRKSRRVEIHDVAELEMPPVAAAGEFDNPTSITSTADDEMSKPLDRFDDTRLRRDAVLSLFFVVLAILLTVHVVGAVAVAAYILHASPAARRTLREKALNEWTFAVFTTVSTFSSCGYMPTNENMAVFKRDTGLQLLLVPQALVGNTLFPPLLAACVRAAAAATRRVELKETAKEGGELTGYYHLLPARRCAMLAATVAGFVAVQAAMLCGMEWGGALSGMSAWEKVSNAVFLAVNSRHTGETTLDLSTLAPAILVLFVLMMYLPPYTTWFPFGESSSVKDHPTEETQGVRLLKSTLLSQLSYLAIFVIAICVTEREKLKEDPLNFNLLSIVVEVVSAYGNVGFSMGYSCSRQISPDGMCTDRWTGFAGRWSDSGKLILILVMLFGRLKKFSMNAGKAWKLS
Test: two-electrode voltage clamp, Xenopus oocytes
Format: cell-based
Conditions: 500 µM quinine; 1 mM external Na+ (glutamate salt); pH 5.5; inward and outward currents

Q: For `C=C[C@H]1CN2CC[C@H]1C[C@H]2[C@H](O)c1ccnc2ccc(OC)cc12` [quinine], which “% decrease of currents at 500 μM” value is on record?
A: Its value is ~ 25%.
